The conditions of data set [1]: pH 7.4.
For data set [2], the system named is HCT116. Nature of the data set: Inhibitory effect on cell growth, HCT116 cells. Type of data set: cell-based, human. The procedure: (§1) Cells are grown in McCoy's 5a medium with 1.5 mM L-glutamine supplemented with 10% FBS.
Data set [3] concerns HT-29 cells. The experiment in a line: Inhibitory effect on cell growth (MTT assay), HT-29 cells. Type of data set: cell-based. The method, then: Using HT-29 cells, the effect of the polyal-SN38 conjugates on cell growth was evaluated.
as §1

Setting [4] is: Homo sapiens, HT-29, HT29, growth inhibition 72 hours post treatment, MTT.

Like-named read-outs stand apart in the source and are kept apart here.

As for PHF-SA-Ala-SN38 [Conjugate S3], the “Release half-lives of SN38 conjugates, T½” value (“Release half-lives” for short) in data set [1] was determined as 36.9 h.
With PHF-GA-Gly-SN38 [Conjugate S2], the “Release half-lives” value in data set [1] turned out to be 18.5 h.
As for PHF-SA-Gly-SN38 [Conjugate S1], the “Release half-lives” value in data set [1] stood at 2.0 h.
Consider PHF-GA-Ala-SN38 [Conjugate S4], for which the “Release half-lives” value in data set [1] was determined as 54.2 h.
As for `CCc1c2c(nc3ccc(O)cc13)-c1cc3c(c(=O)n1C2)COC(=O)[C@]3(O)CC` [SN38], the values for the IC50 in data set [2] and in data set [3] (read-out: HT29 IC50) were 9 nM and 25 nM, respectively.
Regarding `CC[C@@]1(O)C(=O)OCc2c1cc1n(c2=O)Cc2cc3ccccc3nc2-1` [Camptothecin (CPT), Camptothecin], the 50% inhibitory concentration (IC50) in data set [2] (Homo sapiens, HCT-116) worked out at 23 nM; in data set [3] (setting [4]), 83 nM.
Take `CCc1c2c(nc3ccc(OC(=O)N4CCC(N5CCCCC5)CC4)cc13)-c1cc3c(c(=O)n1C2)COC(=O)[C@]3(O)CC` [Irinotecan]: the IC50 was 4650 nM in data set [2] (Homo sapiens, HCT-116) and 4430 nM in data set [3] (setting [4]).

Source of the values: patent US8524214B2, “Polyal drug conjugates comprising variable rate-releasing linkers” (Mersana Therapeutics, Inc., priority 2009, dated 2013).
